# Data: ChEMBL document CHEMBL3045678, “Synthesis of Some New Antimicrobial Thiadiazolyl and Oxadiazolyl Quinoline Derivatives” (2005)
# Active and inactive are the calls of the source. No cut-off for these calls is given here.
# Legend:
# Type in all cases: functional
# [1] = system: Candida albicans; test: Antimicrobial activity against Candida albicans ATCC 10231 at 1 mg/ml after 24 hr by cup diffusion technique; details: for zone of inhibition at 1000 µg/mL: ATCC 10231, 24 h, read-out: DIZ
# [2] = system: Pseudomonas aeruginosa; test: Antimicrobial activity against Pseudomonas aeruginosa ATCC 9027 at 1 mg/ml after 24 hr by cup diffusion technique; details: for zone of inhibition at 1000 µg/mL: ATCC 9027, 24 h, read-out: DIZ
# [3] = system: Escherichia coli; test: Antimicrobial activity against Escherichia coli NCTC 10418 at 1 mg/ml after 24 hr by cup diffusion technique; details: for zone of inhibition at 1000 µg/mL: NCTC 10418, 24 h, read-out: DIZ
# [4] = system: Staphylococcus aureus; test: Antimicrobial activity against Staphylococcus aureus ATCC 6538p at 1 mg/ml after 24 hr by cup diffusion technique; details: for zone of inhibition at 1000 µg/mL: read-out: DIZ
# [5] = system: Candida albicans; test: Antimicrobial activity against Candida albicans ATCC 10231 after 48 hr by two-fold dilution method
# [6] = system: Pseudomonas aeruginosa; test: Antimicrobial activity against Pseudomonas aeruginosa ATCC 9027 after 24 hr by two-fold dilution method; details: ATCC 9027, 24 h
# [7] = system: Staphylococcus aureus; test: Antimicrobial activity against Staphylococcus aureus ATCC 6538p after 24 hr by two-fold dilution method
Compound,zone of inhibition at 1000 µg/mL [1],zone of inhibition at 1000 µg/mL [2],zone of inhibition at 1000 µg/mL [3],zone of inhibition at 1000 µg/mL [4],further results
CCSc1nnc(-c2cc(-c3ccccc3)nc3ccccc23)o1,19 mm,15 mm,18 mm,–,diameter of the inhibition zone (DIZ) [4]: inactive
CCS(=O)(=O)c1nnc(-c2cc(C)nc3ccccc23)o1,24 mm,16 mm,19 mm,16 mm,"MBC ([5]; ATCC 10231, 48 h): 125 µg/mL; MIC ([5]; ATCC 10231, 48 h): 125 µg/mL"
CSc1nnc(NC(=O)c2cc(-c3ccccc3)nc3ccccc23)s1,18 mm,20 mm,16 mm,15 mm,MBC [6]: > 500 µg/mL; MIC [6]: 250 µg/mL
CS(=O)(=O)c1nnc(NC(=O)c2cc(-c3ccccc3)nc3ccccc23)s1,19 mm,15 mm,18 mm,30 mm,MBC [7]: 31.2 µg/mL; MIC [7]: 31.2 µg/mL
Cc1cc(C(=O)Nc2nnc(S(=O)(=O)Cc3ccccc3)s2)c2ccccc2n1,19 mm,13 mm,19 mm,28 mm,MBC [7]: > 500 µg/mL; MIC [7]: 62.5 µg/mL
CS(=O)(=O)c1nnc(-c2cc(-c3ccccc3)nc3ccccc23)o1,18 mm,15 mm,18 mm,20 mm,–
CSc1nnc(-c2cc(C)nc3ccccc23)o1,26 mm,13 mm,17 mm,17 mm,"MBC ([5]; ATCC 10231, 48 h): 125 µg/mL; MIC ([5]; ATCC 10231, 48 h): 125 µg/mL"
Cc1cc(-c2n[nH]c(=S)o2)c2ccccc2n1,18 mm,12 mm,18 mm,20 mm,MBC [7]: > 500 µg/mL; MIC [7]: 62.5 µg/mL
Cc1cc(-c2nnc(S(=O)(=O)Cc3ccccc3)o2)c2ccccc2n1,19 mm,–,18 mm,16 mm,diameter of the inhibition zone (DIZ) [2]: inactive
CCSc1nnc(NC(=O)c2cc(C)nc3ccccc23)s1,18 mm,14 mm,18 mm,17 mm,–
O=C(Nc1nnc(S(=O)(=O)Cc2ccccc2)s1)c1cc(-c2ccccc2)nc2ccccc12,18 mm,14 mm,19 mm,20 mm,MBC [7]: 500 µg/mL; MIC [7]: 500 µg/mL
Cc1cc(-c2nnc(SCc3ccccc3)o2)c2ccccc2n1,19 mm,–,18 mm,13 mm,diameter of the inhibition zone (DIZ) [2]: inactive
CSc1nnc(NC(=O)c2ccnc3ccccc23)s1,19 mm,15 mm,18 mm,17 mm,–
CCS(=O)(=O)c1nnc(NC(=O)c2cc(-c3ccccc3)nc3ccccc23)s1,19 mm,15 mm,19 mm,31 mm,MBC [7]: 125 µg/mL; MIC [7]: 125 µg/mL
CCSc1nnc(NC(=O)c2cc(-c3ccccc3)nc3ccccc23)s1,18 mm,20 mm,19 mm,15 mm,MBC [6]: 500 µg/mL; MIC [6]: 62.5 µg/mL
O=C(Nc1nnc(SCc2ccccc2)s1)c1ccnc2ccccc12,19 mm,17 mm,18 mm,15 mm,–

Compound,zone of inhibition at 1000 µg/mL [1],zone of inhibition at 1000 µg/mL [2],zone of inhibition at 1000 µg/mL [3],zone of inhibition at 1000 µg/mL [4],further results
c1ccc(CSc2nnc(-c3cc(-c4ccccc4)nc4ccccc34)o2)cc1,18 mm,–,18 mm,13 mm,diameter of the inhibition zone (DIZ) [2]: inactive
CS(=O)(=O)c1nnc(NC(=O)c2ccnc3ccccc23)s1,19 mm,13 mm,18 mm,13 mm,–
CSc1nnc(-c2cc(-c3ccccc3)nc3ccccc23)o1,18 mm,13 mm,18 mm,12 mm,–
O=C(O)c1cn(C2CC2)c2cc(N3CCNCC3)c(F)cc2c1=O [CIPROFLOXACIN],–,40 mm,30 mm,25 mm,diameter of the inhibition zone (DIZ) [1]: inactive; MIC [6]: 4 µg/mL; MIC [7]: 2 µg/mL
Cc1cc(C(=O)Nc2nnc(SCc3ccccc3)s2)c2ccccc2n1,24 mm,17 mm,18 mm,15 mm,"MBC ([5]; ATCC 10231, 48 h): 250 µg/mL; MIC ([5]; ATCC 10231, 48 h): 250 µg/mL"
O=S(=O)(Cc1ccccc1)c1nnc(-c2cc(-c3ccccc3)nc3ccccc23)o1,19 mm,–,18 mm,12 mm,diameter of the inhibition zone (DIZ) [2]: inactive
CCS(=O)(=O)c1nnc(-c2cc(-c3ccccc3)nc3ccccc23)o1,18 mm,13 mm,17 mm,18 mm,–
O=C(Nc1nnc(SCc2ccccc2)s1)c1cc(-c2ccccc2)nc2ccccc12,18 mm,15 mm,16 mm,13 mm,–
CCS(=O)(=O)c1nnc(NC(=O)c2ccnc3ccccc23)s1,19 mm,20 mm,19 mm,20 mm,MBC [6]: 125 µg/mL; MIC [6]: 125 µg/mL; MBC [7]: > 500 µg/mL; MIC [7]: 125 µg/mL
CCSc1nnc(NC(=O)c2ccnc3ccccc23)s1,17 mm,14 mm,17 mm,15 mm,–
CCS(=O)(=O)c1nnc(NC(=O)c2cc(C)nc3ccccc23)s1,18 mm,13 mm,17 mm,13 mm,–
CCSc1nnc(-c2cc(C)nc3ccccc23)o1,19 mm,–,19 mm,15 mm,diameter of the inhibition zone (DIZ) [2]: inactive
O=C(Nc1nnc(S(=O)(=O)Cc2ccccc2)s1)c1ccnc2ccccc12,19 mm,20 mm,18 mm,27 mm,MBC [6]: > 500 µg/mL; MIC [6]: 62.5 µg/mL; MBC [7]: 500 µg/mL; MIC [7]: 125 µg/mL
NYSTATIN,–,–,–,–,inhibition zone (IZ) [1]: 37 mm; diameter of the inhibition zone (DIZ) [2]: inactive; diameter of the inhibition zone (DIZ) [3]: inactive; diameter of the inhibition zone (DIZ) [4]: inactive; MIC [5]: 25 µg/mL
Cc1cc(-c2nnc(S(C)(=O)=O)o2)c2ccccc2n1,27 mm,13 mm,18 mm,19 mm,"MBC ([5]; ATCC 10231, 48 h): 125 µg/mL; MIC ([5]; ATCC 10231, 48 h): 31.2 µg/mL"
